Key:
[1] = test system: aminotransferase from Leishmania mexicana; details: activity considered 100% on tyrosine; cited from earlier work
[2] = molecular target: T1, adh1 from Geobacillus thermoglucosidasius M10EXG (Geobacillus sp. M10EXG, UniProt Q6RS93); test: ADH enzyme assay of E. coli expressed Adh1 enzyme (084); format: biochemical; details: reduction by Adh1 enzyme (084) expressed in E. coli
T1 sequence (Q6RS93 1-340): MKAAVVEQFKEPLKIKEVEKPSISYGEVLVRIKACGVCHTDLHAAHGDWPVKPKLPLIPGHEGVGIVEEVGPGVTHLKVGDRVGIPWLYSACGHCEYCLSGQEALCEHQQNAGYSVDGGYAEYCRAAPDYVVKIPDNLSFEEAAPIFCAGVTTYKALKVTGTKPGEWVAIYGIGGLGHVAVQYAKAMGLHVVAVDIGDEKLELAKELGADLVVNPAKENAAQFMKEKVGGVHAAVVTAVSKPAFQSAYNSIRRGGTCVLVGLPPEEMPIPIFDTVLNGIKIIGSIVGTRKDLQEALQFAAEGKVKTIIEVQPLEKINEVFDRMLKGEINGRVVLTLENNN
Description: Alcohol (ADH) and aldehyde (ALD) dehydrogenase was assayed in the reductive direction using a procedure adapted from several literature sources (Durre et al., FEMS Microbiol. Rev. 17:251-262 (1995); Palosaari and Rogers, J. Bacteriol. 170:2971-2976 (1988) and Welch et al., Arch. Biochem. Biophys. 273:309-318 (1989)). The oxidation of NADH is followed by reading absorbance at 340 nm every four seconds for a total of 240 seconds at room temperature. The reductive assays were performed in 100 mM MOPS (adjusted to pH 7.5 with KOH), 0.4 mM NADH, and from 1 to 50 μl of cell extract. The reaction is started by adding the following reagents: 100 μl of 100 mM acetaldehyde or butyraldehyde for ADH, or 100 μl of 1 mM acetyl-CoA or butyryl-CoA for ALD. The Spectrophotometer is quickly blanked and then the kinetic read is started. The resulting slope of the reduction in absorbance at 340 nm per minute, along with the molar extinction coefficient of NAD(P)H at 340 nM (6000) and the protein concentration of the extract, can be used to determine the specific activity.
Multiple alcohol dehydrogenases were screened for their ability to catalyze the reduction of 4-hydroxybutanal to 14-BDO.
The Adh1 enzyme (084) expressed very well from its native gene in E. coli (see FIG. 8A).

[3] = test system: branched chain alpha-ketoacid decarboxylase (BCKA); details: cited from earlier work

Compound | aminotransferase activity [1] | other results
N[C@@H](Cc1ccccc1)C(=O)O [phenylalanine] | 90% | 
CCCC=O [butyraldehyde] |  | Km [2]: 1200 µM
CC(C)C[C@H](N)C(=O)O [leucine] | 25% | 
N[C@@H](Cc1ccc(O)cc1)C(=O)O [tyrosine] | 100% | 
O=CCCCO [Gene 4HB-aldehyde, 4-hydroxybutyraldehyde] |  | Km [2]: 4000 µM
CSCC[C@H](N)C(=O)O [methionine] | 25% | 
O=C(O)CCC(=O)C(=O)O [2-Oxoglutarate] |  | decarboxylation activity relative to other branched-chain substrates [3]: 5%
N[C@@H](Cc1c[nH]c2ccccc12)C(=O)O [tryptophan] | 85% | 

From patent US10662451B2, “Microorganisms and methods for the coproduction 1,4-butanediol and gamma-butyrolactone” (priority 2009, dated 2020)
